In brackets after ≈: the same amount, converted by molar mass. Counter-ions that a name gives are not always drawn. Like-named read-outs stand apart in the source and are kept apart here.
Columns and labels:
[1] = system: Plasmodium falciparum strain NF54; assay: Growth inhibition of Plasmodium falciparum NF54 (chloroquine-sensitive) in vitro, [G-3H]-hypoxanthin incorporation; assay type: cell-based; conditions: chloroquine-sensitive strain NF54, 72 h, read-out: IC50 for P. falciparum NF54
Method in brief: (§1)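 Asynchronous intraerythrocytic cultures in human A+ erythrocytes (0.7% parasitemia, 2.5% suspension) in RPMI 1640 with HEPES, NaHCO3 and human serum, exposed to compound titrated over 6-7 steps for 72 h at 37° C, 3% O2. Growth by [G-3H]-hypoxanthin incorporation against untreated controls; IC50 by logit regression.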

[2] = system: Plasmodium falciparum K1; assay: Growth inhibition of Plasmodium falciparum K1 (chloroquine-resistant) in vitro, [G-3H]-hypoxanthin incorporation; assay type: cell-based, Plasmodium falciparum (strain K1); conditions: for IC50: Plasmodium falciparum, K1, 72 h, read-out: IC50 for P. falciparum K1; for Resistance index: ratio of the IC50 for K1 and the IC50 for NF54
Method in brief: as §1

[3] = system: Plasmodium berghei; assay: animal or person; assay type: in vivo, Plasmodium berghei (strain ANKA) in mice; conditions: Plasmodium berghei, mice, blood smears 48 h after treatment
Method in brief: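 Male albino mice (~25 g) infected i.v. on D0 with P. berghei ANKA (0.2 ml of 10^8 parasitized erythrocytes/ml); single s.c. and p.o. dose 24 h post-infection, 10 mg/kg screen then titration.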

[4] = po, single peroral dose of 10 mg/kg, read-out: Growth inhibition in % after po administration (GI%, percentage reduction of the parasitemia)
[5] = sc, single subcutaneous dose of 10 mg/kg, read-out: Growth inhibition in % after sc administration (GI%, percentage reduction of the parasitemia)

Row | Compound | IC50 [1] [mg/L] | IC50 [2] [mg/L] | Resistance index [2] | inhibition in vivo at 10 mg/kg [3, 4] [%] | inhibition in vivo at 10 mg/kg [3, 5] [%]
1 | Cl.Cl.O=[N+]([O-])c1cccc(Cl)c1CN[C@H]1CC[C@@H](Nc2ccnc3cc(Cl)ccc23)CC1 [Example 22, cis-N1-(2-Chloro-6-nitro-benzyl)-N4-(7-chloro-quinolin-4-yl)-cyclohexane-1,4-diamine dihydrochloride] | 0.0116 | 0.0189 | 1.6 | 42 | 84
2 | Cl.Cl.Clc1ccc2c(N[C@H]3CC[C@@H](NCc4ccccc4)CC3)ccnc2c1 [Example 70, cis-N1-(7-Chloro-quinolin-4-yl)-N4-(benzyl)-cyclohexane-1,4-diamine dihydrochloride] | 0.0038 | 0.0066 | 1.7 | 99.9 | 99.9
3 | CC(C)(CNc1ccnc2cc(Cl)ccc12)NCc1cc(Cl)cc(Cl)c1.Cl.Cl [Example 23, N1-(7-Chloro-quinolin-4-yl)-N2-(3,5-dichloro-benzyl)-2-methylpropane-1,2-diamine dihydrochloride] | 0.0296 | 0.0325 | 1.1 | 97 | 98
4 | CC(C)c1ccc(CNC(C)(C)CNc2ccnc3cc(Cl)ccc23)cc1.Cl.Cl [Example 50, N1-(7-Chloro-quinolin-4-yl)-N2-(4-isopropyl-benzyl)-2-methyl-propane-1,2-diamine dihydrochloride] | 0.0142 | 0.0143 | 1.0 | 93 | 96
5 | Cl.Cl.Clc1cc(Cl)cc(CN[C@H]2CC[C@@H](Nc3ccnc4cc(Cl)ccc34)CC2)c1 [Example 75, cis-N1-(7-Chloro-quinolin-4-yl)-N4-(3,5-dichloro-benzyl)-cyclohexane-1,4-diamine dihydrochloride] | 0.025 | 0.018 | 0.7 | 99.8 | 99.7
6 | CC(C)(CNc1ccnc2cc(Cl)ccc12)NCc1ccc(Cl)c(C(F)(F)F)c1 [Example 7, N1-(7-Chloro-quinolin-4-yl)-N2-(4-chloro-3-trifluoromethyl-benzyl)-2-methyl-propane-1,2-diamine] | 0.024 (≈ 0.0543 µM) | 0.0349 (≈ 0.0789 µM) | 1.5 | 96 | 54
7 | Cl.Cl.Clc1ccc2c(N[C@H]3CC[C@H](NCCc4ccc(Oc5ccccc5)cc4)CC3)ccnc2c1 [Example 98, trans-N1-(7-Chloro-quinolin-4-yl)-N4-[2-(4-phenoxy-phenyl)-ethyl]-cyclohexane-1,4-diamine dihydrochloride] | 0.0045 | 0.0085 | 1.9 | 50 | 93
8 | COc1cccc(CNC(C)(C)CNc2ccnc3cc(Cl)ccc23)c1O.Cl.Cl [Example 30, N1-(7-Chloro-quinolin-4-yl)-N2-(2-hydroxy-3-methoxy-benzyl)-2-methyl-propane-1,2-diamine dihydrochloride] | 0.0067 | 0.0114 | 1.7 | 70 | 95
9 | CC(C)(CNc1ccnc2cc(Cl)ccc12)NCc1ccc([N+](=O)[O-])cc1 [Example 47, N1-(7-Chloro-quinolin-4-yl)-N2-(4-nitro-benzyl)-2-methy-propane-1,2-diamine dihydrochloride] | 0.0094 | 0.0136 | 1.4 | 70 | 79
10 | Cl.Cl.Clc1ccc(CN[C@@H]2CC[C@H](Nc3ccnc4cc(Cl)ccc34)C2)cc1 (relative stereo) [Example 68, cis-N1-(7-Chloro-quinolin-4-yl)-N3-(4-chloro-benzyl)-cyclopentane-1,3-diamine dihydrochloride] | 0.0059 | 0.0146 | 2.5 | 99.9 | 99.6
11 | Cl.Cl.Clc1ccc2c(N[C@H]3CC[C@H](NCc4ccc(Cl)c(Cl)c4)CC3)ccnc2c1 [Example 102, trans N1-(7-Chloro-quinolin-4-yl)-N4-(3,4-dichloro-benzyl)-cyclohexane-1,4-diamine dihydrochloride] | 0.0021 | 0.0036 | 1.7 | 72 | 81
12 | CC(C)(CNc1ccnc2cc(Cl)ccc12)NCc1ccccc1 [Example 24, N1-(7-Chloro-quinolin-4-yl)-N2-(benzyl)-2-methyl-propane-1,2-diamine dihydrochloride] | 0.0079 | 0.0132 | 1.7 | 81 | 95
13 | CC(C)(CNc1ccnc2cc(Cl)ccc12)NCc1cccnc1.Cl.Cl.Cl [Example 57, N1-(7-Chloro-quinolin-4-yl)-N2-(pyridin-3-yl-methyl)-2-methyl-propane-1,2-diamine trihydrochloride] | 0.0217 | 0.0282 | 1.3 | 99.4 | 99.7
14 | COc1cc(CNC(C)(C)CNc2ccnc3cc(Cl)ccc23)cc(OC)c1.Cl.Cl [Example 40, N1-(7-Chloro-quinolin-4-yl)-N2-(3,5-dimethoxy-benzyl)-2-methyl-propane-1,2-diamine dihydrochloride] | 0.0036 | 0.0071 | 2.0 | 84 | 95
